Test results reported in PubChem BioAssay (NCI).
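Five concentrations, 48 hours, 96-well plates. Definition used: TGI = concentration required for complete inhibition of growth.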

Tests used:
Assay in all cases: NCI anticancer screen, dose series, 48 h
SK-MEL-28 melanoma = test system: SK-MEL-28 melanoma
NCI/ADR-RES ovarian = test system: NCI/ADR-RES ovarian
LOX IMVI melanoma = test system: LOX IMVI melanoma
OVCAR-5 ovarian = test system: OVCAR-5 ovarian
K-562 leukemia = test system: K-562 leukemia
SK-MEL-2 melanoma = test system: SK-MEL-2 melanoma
IGROV1 ovarian = test system: IGROV1 ovarian
SR leukemia = test system: SR leukemia
EKVX NSCLC = test system: EKVX NSCLC
HCT-116 colon = test system: HCT-116 colon

SMILES	TGI (SK-MEL-28 melanoma)	TGI (NCI/ADR-RES ovarian)	TGI (LOX IMVI melanoma)	TGI (OVCAR-5 ovarian)	TGI (K-562 leukemia)	TGI (SK-MEL-2 melanoma)	TGI (IGROV1 ovarian)	TGI (SR leukemia)	TGI (EKVX NSCLC)	TGI (HCT-116 colon)
O=CC(I)=C(c1ccccc1)c1ccccc1	31.8 µM	45.1 µM	28.6 µM	40.7 µM	> 71 µM	33.4 µM	37.5 µM	27.9 µM	36 µM	27.2 µM
[N-]=[N+]=CC(=O)C1CCCN1C(=O)c1ccccc1 (stereo not given)	> 10 µM	> 10 µM	> 10 µM	> 10 µM	> 10 µM	> 10 µM	> 10 µM	> 10 µM	> 10 µM	> 10 µM
CCOC(=O)CSc1nc(N)c2c(-c3ccccc3)c3c(nc2n1)CCCC3	> 100 µM	> 100 µM	> 100 µM	> 100 µM	> 100 µM	> 100 µM	> 100 µM	> 100 µM	> 100 µM	> 100 µM
S=C(Cc1ccc2c(c1)Sc1ccccc1O2)N1CCOCC1	> 100 µM	> 100 µM	> 100 µM	> 100 µM	> 100 µM	> 100 µM	> 100 µM	> 100 µM	> 100 µM	> 100 µM
COC(=O)CNC(=O)C(CSC(=O)OCC1c2ccccc2-c2ccccc21)NC(=O)CCC(NC(=O)OCC1c2ccccc2-c2ccccc21)C(=O)OC (stereo not given)	> 100 µM	> 100 µM	21.1 µM	76.7 µM	82.7 µM	31.1 µM	31.6 µM	37.5 µM	> 100 µM	32.5 µM
Cn1nc(-c2ccc(S(=O)(=O)/N=C(\NN)Nc3ccc(Cl)cc3)s2)cc1C(F)(F)F	33.8 µM	50.7 µM	34.2 µM	30.1 µM	35.4 µM	34.1 µM	36 µM	41.7 µM	28.2 µM	29.2 µM
O=c1c(F)cn2c(=O)n1CCCCCCCn1c(=O)c(F)cn(c1=O)CCCCCCC2	22.2 µM	> 100 µM	> 100 µM	> 100 µM	> 100 µM	> 100 µM	> 100 µM	> 100 µM	> 100 µM	> 100 µM
O=C(CC(NC(=O)C(F)(F)F)C(=O)O)OCc1ccccc1 (stereo not given)	> 100 µM	> 100 µM	> 100 µM	> 100 µM	> 100 µM	> 100 µM	> 100 µM	> 100 µM	> 100 µM	> 100 µM
Cn1c2ccccc2c2ccc3c(c21)C(=O)c1ccc2c4ccccc4n(C)c2c1C3=O	> 100 µM	> 100 µM	> 100 µM	> 100 µM	> 100 µM	> 100 µM	> 100 µM	> 100 µM	> 100 µM	> 100 µM
COc1ccc2ccc3oc(=O)c(C)cc3c2c1	> 100 µM	> 100 µM	> 100 µM	> 100 µM	> 100 µM	> 100 µM	> 100 µM	> 100 µM	> 100 µM	> 100 µM
Cc1ccc2cccc(-c3cccc4ccccc34)c2n1	> 100 µM	> 100 µM	31.3 µM	55.5 µM	21 µM	37.5 µM	> 100 µM	35.8 µM	84.9 µM	95 µM
Cc1ccccc1-c1nc2c(N)nc(N)nc2nc1N	> 100 µM	> 100 µM	> 100 µM	> 100 µM	> 100 µM	> 100 µM	> 100 µM	> 100 µM	> 100 µM	> 100 µM
N#Cc1c(-c2ccc([N+](=O)[O-])cc2)cc(-c2ccc(Nc3ccnc4cc(Cl)ccc34)cc2)[nH]c1=O	> 100 µM	> 100 µM	> 100 µM	> 100 µM	> 100 µM	> 100 µM	> 100 µM	> 100 µM	> 100 µM	> 100 µM
COc1ccc2nc(NC(=O)/C(C#N)=C/c3ccccc3)sc2c1	> 100 µM	> 69.6 µM	> 100 µM	> 100 µM	> 95.2 µM	> 100 µM	> 86.3 µM	21.9 µM	> 100 µM	> 100 µM
O=C(NCc1ccccc1)c1cc2ccccc2oc1=Nc1cccc(C(F)(F)F)c1	> 100 µM	> 100 µM	> 100 µM	> 100 µM	> 100 µM	> 100 µM	> 100 µM	66.1 µM	> 100 µM	> 100 µM
CC1=CC2C3(C)C(C)(C(C)=CP3(=O)c3c(C(C)C)cc(C(C)C)cc3C(C)C)C1P2(=O)c1c(C(C)C)cc(C(C)C)cc1C(C)C (stereo not given)	8.23 µM	9.89 µM	3.26 µM	6.31 µM	12.8 µM	3.37 µM	6.1 µM	3.92 µM	9.83 µM	4.02 µM
O=C(ON=C1c2ccccc2C(Br)C(Br)c2ccccc21)c1ccccc1 (stereo not given)	33.2 µM	51.4 µM	9.12 µM	35.6 µM	8.98 µM	> 63.6 µM	6.27 µM	9.12 µM	46.6 µM	28 µM

SMILES	TGI (SK-MEL-28 melanoma)	TGI (NCI/ADR-RES ovarian)	TGI (LOX IMVI melanoma)	TGI (OVCAR-5 ovarian)	TGI (K-562 leukemia)	TGI (SK-MEL-2 melanoma)	TGI (IGROV1 ovarian)	TGI (SR leukemia)	TGI (EKVX NSCLC)	TGI (HCT-116 colon)
OCc1ccc2c(c1)CC1(C2)Cc2cc3c(cc2C1O)CCC3 (stereo not given)	21.3 µM	12.3 µM	19.4 µM	56.1 µM	> 37.6 µM	12.7 µM	26.8 µM	> 21.7 µM	40.1 µM	15.4 µM
CN(CCN1CCCC1)C1CCc2cc(Cl)c(Cl)cc2C1 (stereo not given)	67.9 µM	28 µM	29.7 µM	31.4 µM	> 100 µM	35.2 µM	29.3 µM	74.5 µM	47.6 µM	25.5 µM
CCCCI(O)OS(=O)(=O)c1ccc(C)cc1	> 100 µM	> 100 µM	30.8 µM	> 100 µM	> 100 µM	> 100 µM	73.8 µM	73.3 µM	> 100 µM	> 100 µM
c1c[nH]c(-c2cccc3nsnc23)c1	> 100 µM	> 100 µM	> 100 µM	> 100 µM	> 100 µM	> 100 µM	> 100 µM	> 100 µM	> 100 µM	> 100 µM
O=C(CCc1cc(O)cc(O)c1)NCCc1cc(OCc2ccccc2)cc(OCc2ccccc2)c1	55 µM	55.2 µM	32 µM	39.5 µM	29.7 µM	28.2 µM	31.4 µM	27 µM	22.6 µM	32.2 µM
Cc1c(C)n(-c2ccccc2)c2nc(S(C)=O)nc(S(C)=O)c12 (stereo not given)	14.9 µM	59.2 µM	4.15 µM	28.9 µM	4.28 µM	10.1 µM	17.2 µM	2.82 µM	22.8 µM	4.86 µM
c1ccc(C2=NC3OC2c2ccccc23)cc1 (stereo not given)	> 10 µM	> 10 µM	> 10 µM	> 10 µM	> 10 µM	> 10 µM	> 10 µM	> 10 µM	> 10 µM	> 10 µM
COc1ccc(C)cc1N1C(=O)C2ON(Cc3ccc(CC(N)=O)cc3)C(c3c4ccccc4c(Cl)c4ccccc34)C2C1=O (stereo not given)	> 100 µM	76.9 µM	54.7 µM	58.5 µM	> 100 µM	44.5 µM	> 100 µM	48.6 µM	98 µM	32.7 µM
COc1ccc2c(c1)c1c(n2CCN2CCCCC2)-c2cccc(OC)c2CC1	35 µM	41.5 µM	38.7 µM	32.8 µM	31.6 µM	32.3 µM	29.8 µM	44.7 µM	42 µM	> 100 µM
CCCCCCN(CCCCCC)C(=S)N/N=C(\C)c1ccccn1	3.04 µM	4.27 µM	2.59 µM	5.59 µM	4.64 µM	3.02 µM	2.62 µM	11.5 µM	3.01 µM	2.39 µM
CC(=O)Nc1nc(Cl)cc(NCC2(CO)CCC2)n1	> 100 µM	> 100 µM	> 100 µM	> 100 µM	> 100 µM	> 100 µM	> 100 µM	> 100 µM	> 100 µM	> 100 µM
COC(=O)/C=C(\C)CC/C=C(\C)CCC1OC1(C)C (stereo not given)	23.3 µM	28 µM	11 µM	25.3 µM	22 µM	21.2 µM	26.9 µM	23.4 µM	24.3 µM	24.3 µM
O=C(COc1ccc(OCC(=O)N/N=C/c2ccc(-c3ccc(Cl)cc3Cl)o2)c(Cl)c1)N/N=C/c1ccc(-c2ccc(Cl)cc2Cl)o1	> 100 µM	> 100 µM	> 100 µM	> 100 µM	50.2 µM	> 100 µM	> 100 µM	8.25 µM	89.5 µM	> 100 µM
Cn1c2ccccc2n2c3ncccc3c(=O)c(C#N)c12	> 100 µM	> 100 µM	23.1 µM	> 100 µM	> 100 µM	97.4 µM	> 100 µM	> 100 µM	> 100 µM	> 59 µM
COc1ccc(N=Nc2c(-c3c(OC)cc4occc4c3OC)[nH]c(=O)c(C#N)c2C)cc1	> 100 µM	> 100 µM	> 100 µM	> 100 µM	> 100 µM	> 100 µM	> 100 µM	> 100 µM	> 100 µM	> 100 µM
O=c1oc2ccc3ccccc3c2cc1-c1cn2ccsc2n1	57.3 µM	96.2 µM	31.7 µM	66.6 µM	82.4 µM	> 100 µM	23.2 µM	46.9 µM	54.5 µM	30.9 µM
CC(C)C(Br)CCC1=CCC(Br)(Br)C1 (stereo not given)	29 µM	62.1 µM	3.05 µM	30.5 µM	> 100 µM	19.3 µM	10.8 µM	> 100 µM	32.5 µM	27.9 µM
